According to patent US8435980B2 (AbbVie Inc., priority 2009, dated 2013):

Molecular target: T1, Cdc7 (BEV coexpressed huCDC7/DBF4) (Homo sapiens, UniProt O00311)
T1 construct: made in house; host or cells: BEV (baculovirus expression vector) co-expression; insect cells are implied but no cell line is named
Assay: Cdc7 enzyme inhibition assay ([33P]ATP, biotinylated peptide substrate, FlashPlate)
Type: biochemical
Conditions: for Ki ratio comparisons (Ki Comparative Example/Ki Example): Table 2, Comparative Example lacking the chloro substituent versus the chloro Example
Experimental: Cdc7 (BEV coexpressed huCDC7/DBF4) is prepared internally. Cdc7 assays are conducted as follows with final concentrations as listed. […] Reactions are quenched after 1 hr by the addition of 90 μL stop buffer (50 mM EDTA, 2M NaCl). […] (Ki) for exemplary compounds.

T1 sequence (O00311 whole entry): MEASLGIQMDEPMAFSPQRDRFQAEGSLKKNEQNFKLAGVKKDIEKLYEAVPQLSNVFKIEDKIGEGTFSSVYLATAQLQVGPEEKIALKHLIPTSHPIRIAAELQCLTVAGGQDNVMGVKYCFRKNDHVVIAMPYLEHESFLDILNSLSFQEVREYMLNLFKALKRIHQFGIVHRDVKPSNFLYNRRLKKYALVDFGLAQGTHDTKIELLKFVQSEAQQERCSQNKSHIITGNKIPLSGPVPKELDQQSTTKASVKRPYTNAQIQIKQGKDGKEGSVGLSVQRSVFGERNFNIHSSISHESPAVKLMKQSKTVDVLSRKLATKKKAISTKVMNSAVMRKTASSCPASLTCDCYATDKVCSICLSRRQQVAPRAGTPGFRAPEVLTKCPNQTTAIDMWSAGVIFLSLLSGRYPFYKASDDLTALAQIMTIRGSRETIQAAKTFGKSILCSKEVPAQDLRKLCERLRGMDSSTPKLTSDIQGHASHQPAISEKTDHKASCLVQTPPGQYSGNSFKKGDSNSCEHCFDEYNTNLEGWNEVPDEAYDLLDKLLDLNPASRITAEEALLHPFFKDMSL
T1 sequence (Q9UBU7 whole entry partner): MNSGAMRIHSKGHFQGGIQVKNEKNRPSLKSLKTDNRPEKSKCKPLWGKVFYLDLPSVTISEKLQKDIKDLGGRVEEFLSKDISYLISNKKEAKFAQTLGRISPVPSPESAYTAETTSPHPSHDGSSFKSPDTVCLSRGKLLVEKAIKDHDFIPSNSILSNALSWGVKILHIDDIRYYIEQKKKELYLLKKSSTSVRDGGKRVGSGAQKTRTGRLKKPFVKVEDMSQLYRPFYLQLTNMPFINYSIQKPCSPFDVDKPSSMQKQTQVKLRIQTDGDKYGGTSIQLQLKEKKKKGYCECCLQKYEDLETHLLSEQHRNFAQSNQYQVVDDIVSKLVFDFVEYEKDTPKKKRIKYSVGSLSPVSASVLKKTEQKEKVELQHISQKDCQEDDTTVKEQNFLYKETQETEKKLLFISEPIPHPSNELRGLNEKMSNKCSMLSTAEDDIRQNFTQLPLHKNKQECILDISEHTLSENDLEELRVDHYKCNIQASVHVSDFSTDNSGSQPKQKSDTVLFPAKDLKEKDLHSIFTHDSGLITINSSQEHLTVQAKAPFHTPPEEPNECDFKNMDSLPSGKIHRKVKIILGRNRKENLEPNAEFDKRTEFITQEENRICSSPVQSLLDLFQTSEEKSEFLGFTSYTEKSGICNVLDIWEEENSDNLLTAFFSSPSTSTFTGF

| Structure (SMILES) | Ki [nM] | Ki ratio comparisons (Ki Comparative Example/Ki Example) |
| --- | --- | --- |
| N#Cc1cc(-c2c[nH]c3ncccc23)cc(N[C@H]2CC[C@H](O)CC2)n1 [Comparative Example 10, 6-[(trans-4-hydroxycyclohexyl)amino]-4-(1H-pyrrolo[2,3-b]pyridin-3-yl)pyridine-2-carbonitrile, reference compound] |  | 10 |
| NC(=O)c1cc(-c2c[nH]c3ncccc23)cc(N[C@H]2CC[C@H](O)CC2)n1 [Comparative Example 11, 6-[(trans-4-hydroxycyclohexyl)amino]-4-(1H-pyrrolo[2,3-b]pyridin-3-yl)pyridine-2-carboxamide, reference compound] |  | 134 |
| c1cnc2[nH]cc(-c3ccnc(NC4CCCCC4)n3)c2c1 [Comparative Example 12, N-cyclohexyl-4-(1H-pyrrolo[2,3-b]pyridin-3-yl)pyrimidin-2-amine, reference compound] |  | 3 |
| N[C@H]1CC[C@H](Nc2nccc(-c3c[nH]c4ncccc34)n2)CC1 [Comparative Example 13, Trans-N-[4-(1H-pyrrolo[2,3-b]pyridin-3-yl)pyrimidin-2-yl]cyclohexane-1,4-diamine, reference compound] |  | 12 |
| Clc1cc(-c2c[nH]c3ncccc23)cc(NC2CCCCC2)n1 [Example 1, 6-Chloro-N-cyclohexyl-4-(1H-pyrrolo[2,3-b]pyridin-3-yl)pyridin-2-amine] | < 10 |  |
| Clc1cc(-c2c[nH]c3ncccc23)cc(NCc2ccccc2)n1 [Example 2, N-Benzyl-6-chloro-4-(1H-pyrrolo[2,3-b]pyridin-3-yl)pyridin-2-amine] | < 10 |  |
| C=CCNc1cc(-c2c[nH]c3ncccc23)cc(Cl)n1 [Example 3, N-Allyl-6-chloro-4-(1H-pyrrolo[2,3-b]pyridin-3-yl)pyridin-2-amine] | < 10 |  |
| FC1(F)CN(c2cc(-c3c[nH]c4ncccc34)cc(Cl)n2)C1 [Example 6, 3-[2-chloro-6-(3,3-difluoroazetidin-1-yl)pyridin-4-yl]-1-1H-pyrrolo[2,3-b]pyridine] | 10 to 100 |  |
| Cc1cccc(-c2cc(-c3c[nH]c4ncccc34)cc(Cl)n2)c1C [Example 7, 3-[2-chloro-6-(2,3-dimethylphenyl)pyridin-4-yl]-1H-pyrrolo[2,3-b]pyridine] | 10 to 100 |  |
| Clc1cc(-c2c[nH]c3ncccc23)cc(NC2CCOCC2)n1 [Example 8, 6-chloro-4-(1H-pyrrolo[2,3-b]pyridin-3-yl)-N-tetrahydro-2H-pyran-4-ylpyridin-2-amine] | < 10 |  |
| OC1CCCCC1Nc1cc(-c2c[nH]c3ncccc23)cc(Cl)n1 (stereo not drawn) [Example 9, 2-{[6-chloro-4-(1H-pyrrolo[2,3-b]pyridin-3-yl)pyridin-2-yl]amino}cyclohexanol] | < 10 |  |
| COCCN(CCOC)c1cc(-c2c[nH]c3ncccc23)cc(Cl)n1 [Example 12, 6-chloro-N,N-bis(2-methoxyethyl)-4-(1H-pyrrolo[2,3-b]pyridin-3-yl)pyridin-2-amine] | 10 to 100 |  |
| Clc1cc(-c2c[nH]c3ncccc23)cc(NCC2CCCO2)n1 (stereo not drawn) [Example 13, 6-chloro-4-(1H-pyrrolo[2,3-b]pyridin-3-yl)-N-(tetrahydrofuran-2-ylmethyl)pyridin-2-amine] | < 10 |  |
| COC1CCCCC1Nc1cc(-c2c[nH]c3ncccc23)cc(Cl)n1 (stereo not drawn) [Example 16, 6-chloro-N-(2-methoxycyclohexyl)-4-(1H-pyrrolo[2,3-b]pyridin-3-yl)pyridin-2-amine] | 10 to 100 |  |
| NC1CCCCC1Nc1cc(-c2c[nH]c3ncccc23)cc(Cl)n1 (stereo not drawn) [Example 17, N-[6-chloro-4-(1H-pyrrolo[2,3-b]pyridin-3-yl)pyridin-2-yl]cyclohexane-1,2-diamine] | < 10 |  |
| CC(C)(O)CNc1cc(-c2c[nH]c3ncccc23)cc(Cl)n1 [Example 18, 1-{[6-chloro-4-(1H-pyrrolo[2,3-b]pyridin-3-yl)pyridin-2-yl]amino}-2-methylpropan-2-ol] | < 10 |  |
| OCCCCNc1cc(-c2c[nH]c3ncccc23)cc(Cl)n1 [Example 19, 4-{[6-chloro-4-(1H-pyrrolo[2,3-b]pyridin-3-yl)pyridin-2-yl]amino}butan-1-ol] | < 10 |  |
| CC(C)(CO)CCCNc1cc(-c2c[nH]c3ncccc23)cc(Cl)n1 [Example 20] | < 10 |  |
| CC(=O)NC1CCC(Nc2cc(-c3c[nH]c4ncccc34)cc(Cl)n2)CC1 (stereo not drawn) [Example 22, N-(4-{[6-chloro-4-(1H-pyrrolo[2,3-b]pyridin-3-yl)pyridin-2-yl]-amino}cyclohexyl)acetamide] | < 10 |  |
| CS(=O)(=O)NC1CCCC(Nc2cc(-c3c[nH]c4ncccc34)cc(Cl)n2)C1 (stereo not drawn) [Example 24, N-(3-{[6-chloro-4-(1H-pyrrolo[2,3-b]pyridin-3-yl)pyridin-2-yl]-amino}cyclohexyl)methanesulfonamide] | < 10 |  |
| Clc1cc(-c2c[nH]c3ncccc23)cc(NCC2CCOCC2)n1 [Example 25, 6-chloro-4-(1H-pyrrolo[2,3-b]pyridin-3-yl)-N-(tetrahydro-2H-pyran-4-ylmethyl)pyridin-2-amine] | < 10 |  |
| OC1CCCC(Nc2cc(-c3c[nH]c4ncccc34)cc(Cl)n2)C1 (stereo not drawn) [Example 26, 3-{[6-chloro-4-(1H-pyrrolo[2,3-b]pyridin-3-yl)pyridin-2-yl]amino}cyclohexanol] | < 10 |  |
| Clc1cc(-c2c[nH]c3ncccc23)cc(NCc2cccnc2)n1 [Example 27, 6-chloro-N-(pyridin-3-ylmethyl)-4-(1H-pyrrolo[2,3-b]pyridin-3-yl)pyridin-2-amine] | < 10 |  |
| Clc1cc(-c2c[nH]c3ncccc23)cc(NCC2CCCOC2)n1 (stereo not drawn) [Example 28, 6-chloro-4-(1H-pyrrolo[2,3-b]pyridin-3-yl)-N-(tetrahydro-2H-pyran-3-ylmethyl)pyridin-2-amine] | 10 to 100 |  |
| Clc1cc(-c2c[nH]c3ncccc23)cc(NCc2ccncc2)n1 [Example 31, 6-chloro-N-(pyridin-4-ylmethyl)-4-(1H-pyrrolo[2,3-b]pyridin-3-yl)pyridin-2-amine] | 10 to 100 |  |
| Clc1cc(-c2c[nH]c3ncccc23)cc(NCC2CCCCO2)n1 (stereo not drawn) [Example 32, 6-chloro-4-(1H-pyrrolo[2,3-b]pyridin-3-yl)-N-(tetrahydro-2H-pyran-2-ylmethyl)pyridin-2-amine] | 10 to 100 |  |
| Clc1cc(-c2c[nH]c3ncccc23)cc(NC2CCNCC2)n1 [Example 33, 6-chloro-N-piperidin-4-yl-4-(1H-pyrrolo[2,3-b]pyridin-3-yl)pyridin-2-amine] | 10 to 100 |  |
| COC1CCC(Nc2cc(-c3c[nH]c4ncccc34)cc(Cl)n2)CC1 (stereo not drawn) [Example 34, 6-chloro-N-(4-methoxycyclohexyl)-4-(1H-pyrrolo[2,3-b]pyridin-3-yl)pyridin-2-amine] | 10 to 100 |  |
| CC(=O)NC1CCCC(Nc2cc(-c3c[nH]c4ncccc34)cc(Cl)n2)C1 (stereo not drawn) [Example 35, N-(3-{[6-chloro-4-(1H-pyrrolo[2,3-b]pyridin-3-yl)pyridin-2-yl]amino}cyclohexyl)acetamide] | 10 to 100 |  |
| Clc1cc(-c2c[nH]c3ncccc23)cc(NCC2CCCNC2)n1 (stereo not drawn) [Example 38, 6-chloro-N-(piperidin-3-ylmethyl)-4-(1H-pyrrolo[2,3-b]pyridin-3-yl)pyridin-2-amine] | 10 to 100 |  |

Continued, in another order:

| Ki [nM] | Structure (SMILES) | Ki ratio comparisons (Ki Comparative Example/Ki Example) |
| --- | --- | --- |
| 10 to 100 | Clc1cc(-c2c[nH]c3ncccc23)cc(N2CCCCC2)n1 [Example 4, 3-(2-chloro-6-piperidin-1-ylpyridin-4-yl)-1H-pyrrolo[2,3-b]pyridine] |  |
| < 10 | CN(Cc1ccccc1)c1cc(-c2c[nH]c3ncccc23)cc(Cl)n1 [Example 5, N-benzyl-6-chloro-N-methyl-4-(1H-pyrrolo[2,3-b]pyridin-3-yl)pyridin-2-amine] |  |
| < 10 | COCCNc1cc(-c2c[nH]c3ncccc23)cc(Cl)n1 [Example 10, 6-chloro-N-(2-methoxyethyl)-4-(1H-pyrrolo[2,3-b]pyridin-3-yl)pyridin-2-amine] |  |
| < 10 | OCCNc1cc(-c2c[nH]c3ncccc23)cc(Cl)n1 [Example 11, 2-{[6-chloro-4-(1H-pyrrolo[2,3-b]pyridin-3-yl)pyridin-2-yl]amino}ethanol] |  |
| < 10 | O[C@H]1CC[C@H](Nc2cc(-c3c[nH]c4ncccc34)cc(Cl)n2)CC1 [Example 14, Trans 4-{[6-chloro-4-(1H-pyrrolo[2,3-b]pyridin-3-yl)pyridin-2-yl]amino}cyclohexanol] |  |
| < 10 | NC1CCC(Nc2cc(-c3c[nH]c4ncccc34)cc(Cl)n2)CC1 (stereo not drawn) [Example 15, N-[6-chloro-4-(1H-pyrrolo[2,3-b]pyridin-3-yl)pyridin-2-yl]cyclohexane-1,4-diamine] |  |
| < 10 | CS(=O)(=O)NC1CCC(Nc2cc(-c3c[nH]c4ncccc34)cc(Cl)n2)CC1 (stereo not drawn) [Example 21, N-(4-{[6-chloro-4-(1H-pyrrolo[2,3-b]pyridin-3-yl)pyridin-2-yl]amino}cyclohexyl)methanesulfonamide] |  |
| < 10 | NC1CCCC(Nc2cc(-c3c[nH]c4ncccc34)cc(Cl)n2)C1 (stereo not drawn) [Example 23, N-[6-chloro-4-(1H-pyrrolo[2,3-b]pyridin-3-yl)pyridin-2-yl]cyclohexane-1,3-diamine] |  |
| < 10 | Clc1cc(-c2c[nH]c3ncccc23)cc(NCC2CCNC2)n1 (stereo not drawn) [Example 29, 6-chloro-N-(pyrrolidin-3-ylmethyl)-4-(1H-pyrrolo[2,3-b]pyridin-3-yl)pyridin-2-amine] |  |
| 10 to 100 | Cc1cccc(CNc2cc(-c3c[nH]c4ncccc34)cc(Cl)n2)c1C [Example 30, 6-chloro-N-(2,3-dimethylbenzyl)-4-(1H-pyrrolo[2,3-b]pyridin-3-yl)pyridin-2-amine] |  |
| 10 to 100 | Fc1cc(Cl)ccc1CNc1cc(-c2c[nH]c3ncccc23)cc(Cl)n1 [Example 36, 6-chloro-N-(4-chloro-2-fluorobenzyl)-4-(1H-pyrrolo[2,3-b]pyridin-3-yl)pyridin-2-amine] |  |
| 10 to 100 | Clc1cc(-c2c[nH]c3ncccc23)cc(NCc2cccnc2Oc2cccnc2)n1 [Example 37, 6-chloro-N-{[2-(pyridin-3-yloxy)pyridin-3-yl]methyl}-4-(1H-pyrrolo[2,3-b]pyridin-3-yl)pyridin-2-amine] |  |
